Assay results: the NIST ThermoML archive (doi:10.1021/je030163d)
Numbers after ± are expanded uncertainties.

Key:
[1] = xn = mol fraction of the nth substance listed; conditions: 101.3 kPa, Liquid, x1 = 1; for viscosity: Capillary tube (Ostwald / Ubbelohde) method; for mass density: Pycnometric method
[2] = 101.3 kPa, Liquid; for viscosity: Capillary tube (Ostwald / Ubbelohde) method; for mass density: Pycnometric method

## CN(C)C=O [dimethylformamide] + OCc1ccccc1
[1]; 298.15 K
  viscosity: 0.803 ± 0.006 mPa·s
  mass density: 944.5 ± 0.3 kg/m3
[1]; 303.15 K
  viscosity: 0.756 ± 0.006 mPa·s
  mass density: 939.8 ± 0.3 kg/m3
[1]; 308.15 K
  viscosity: 0.71 ± 0.005 mPa·s
  mass density: 935.1 ± 0.3 kg/m3
[1]; 313.15 K
  viscosity: 0.673 ± 0.005 mPa·s
  mass density: 930.2 ± 0.4 kg/m3

## OCc1ccccc1 [benzenemethanol]
[2]; 298.15 K
  viscosity: 5.16 ± 0.031 mPa·s
  mass density: 1041.3 ± 0.4 kg/m3
[2]; 303.15 K
  viscosity: 4.67 ± 0.028 mPa·s
  mass density: 1037.5 ± 0.4 kg/m3
[2]; 308.15 K
  viscosity: 4.004 ± 0.024 mPa·s
  mass density: 1033.7 ± 0.4 kg/m3
[2]; 313.15 K
  viscosity: 3.52 ± 0.021 mPa·s
  mass density: 1029.4 ± 0.4 kg/m3

## CN(C)C=O [dimethylformamide]
[2]; 298.15 K
  viscosity: 0.803 ± 0.006 mPa·s
  mass density: 944.5 ± 0.3 kg/m3
[2]; 303.15 K
  viscosity: 0.756 ± 0.006 mPa·s
  mass density: 939.8 ± 0.3 kg/m3
[2]; 308.15 K
  viscosity: 0.71 ± 0.005 mPa·s
  mass density: 935.1 ± 0.3 kg/m3
[2]; 313.15 K
  viscosity: 0.673 ± 0.005 mPa·s
  mass density: 930.2 ± 0.4 kg/m3

## CN(C)C=O [dimethylformamide] + CC(=O)c1ccccc1
[1]; 298.15 K
  viscosity: 0.803 ± 0.006 mPa·s
  mass density: 944.5 ± 0.3 kg/m3
[1]; 303.15 K
  viscosity: 0.756 ± 0.006 mPa·s
  mass density: 939.8 ± 0.3 kg/m3
[1]; 308.15 K
  viscosity: 0.71 ± 0.005 mPa·s
  mass density: 935.1 ± 0.3 kg/m3
[1]; 313.15 K
  viscosity: 0.673 ± 0.005 mPa·s
  mass density: 930.2 ± 0.4 kg/m3

## CC(=O)c1ccccc1 [acetophenone]
[2]; 298.15 K
  viscosity: 1.68 ± 0.013 mPa·s
  mass density: 1024.1 ± 0.6 kg/m3
[2]; 303.15 K
  viscosity: 1.54 ± 0.012 mPa·s
  mass density: 1019.9 ± 0.6 kg/m3
[2]; 308.15 K
  viscosity: 1.41 ± 0.011 mPa·s
  mass density: 1015.7 ± 0.6 kg/m3
[2]; 313.15 K
  viscosity: 1.31 ± 0.01 mPa·s
  mass density: 1011.2 ± 0.6 kg/m3
